In brackets after ≈: the same amount, converted by molar mass.
Tests used:
[1] = tested on: S. aureus RN4220; experiment: MIC, agar plate dilution method, S. aureus RN4220; type: cell-based, Staphylococcus aureus; details: Staphylococcus aureus, RN4220, S. aureus RN4220, Sensitive bacterium, read-out: minimal inhibitory concentration (MIC)
How it was run: (§1)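 Minimal inhibitory concentration (μg/mL) was determined by agar plate dilution following the Japan Society of Chemotherapy method.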

[2] = tested on: S. aureus RN4220/pMS520; experiment: MIC, agar plate dilution method, S. aureus RN4220/pMS520; type: cell-based, Staphylococcus aureus; details: Staphylococcus aureus, MRSA, read-out: minimal inhibitory concentration (MIC), S. aureus RN4220/pMS520, MRSA
How it was run: as §1

[3] = tested on: S. aureus MF490; experiment: MIC, agar plate dilution method, S. aureus MF490; type: cell-based, Staphylococcus aureus; details: Staphylococcus aureus, MRSA, read-out: minimal inhibitory concentration (MIC)
How it was run: as §1

[4] = tested on: E. faecium ATCC19434; experiment: MIC, agar plate dilution method, E. faecium ATCC19434; type: cell-based, Enterococcus faecium; details: Enterococcus faecium, ATCC19434, E. faecium ATCC19434, read-out: minimal inhibitory concentration (MIC)
How it was run: as §1

[5] = tested on: E. coli JM109/pMW218; experiment: MIC, agar plate dilution method, E. coli JM109/pMW218; type: cell-based, Escherichia coli; details: Escherichia coli, JM109/PMW218, E. coli JM109/pMW218, Sensitive bacterium, read-out: minimal inhibitory concentration (MIC)
How it was run: as §1

[6] = tested on: K. pneumoniae ATCC BAA-1705; experiment: MIC, agar plate dilution method, K. pneumoniae ATCC BAA-1705; type: cell-based, Klebsiella pneumoniae; details: Klebsiella pneumoniae, ATCCBAA1705, K. pneumoniae ATCC BAA-1705, KPC-producing strain, read-out: minimal inhibitory concentration (MIC)
How it was run: as §1

[7] = tested on: K. pneumoniae ATCC BAA-2146; experiment: MIC, agar plate dilution method, K. pneumoniae ATCC BAA-2146; type: cell-based, Klebsiella pneumoniae; details: Klebsiella pneumoniae, ATCCBAA2146, K. pneumoniae ATCC BAA-2146, NDM-producing strain, read-out: minimal inhibitory concentration (MIC)
How it was run: as §1

[8] = tested on: A. baumannii ATCC BAA-1710; experiment: MIC, agar plate dilution method, A. baumannii ATCC BAA-1710; type: cell-based, Acinetobacter baumannii; details: Acinetobacter baumannii, ATCCBAA1710, A. baumannii ATCC BAA-1710, MDRA, read-out: minimal inhibitory concentration (MIC)
How it was run: as §1

[9] = tested on: S. marcescens TH-0447; experiment: MIC, agar plate dilution method, S. marcescens TH-0447; type: cell-based, Serratia marcescens; details: Serratia marcescens, TH0447, S. marcescens TH-0447, AMK-resistant, read-out: minimal inhibitory concentration (MIC)
How it was run: as §1

[10] = tested on: S. marcescens GN6944; experiment: MIC, agar plate dilution method, S. marcescens GN6944; type: cell-based, Serratia marcescens; details: Serratia marcescens, S. marcescens GN6944, GM-resistant, read-out: minimal inhibitory concentration (MIC)
How it was run: as §1

[11] = tested on: P. aeruginosa PAO1; experiment: MIC, agar plate dilution method, P. aeruginosa PAO1; type: cell-based, Pseudomonas aeruginosa; details: Pseudomonas aeruginosa, PAO1, P. aeruginosa PAO1, Sensitive bacterium, read-out: minimal inhibitory concentration (MIC)
How it was run: as §1

[12] = tested on: P. aeruginosa PAO1/GN315; experiment: MIC, agar plate dilution method, P. aeruginosa PAO1/GN315; type: cell-based, Pseudomonas aeruginosa; details: Pseudomonas aeruginosa, read-out: minimal inhibitory concentration (MIC), P. aeruginosa PAO1/GN315, AMK-resistant
How it was run: as §1

[13] = tested on: P. aeruginosa MSC17707; experiment: MIC, agar plate dilution method, P. aeruginosa MSC17707; type: cell-based, Pseudomonas aeruginosa; details: Pseudomonas aeruginosa, MSC17707, P. aeruginosa MSC17707, AMK-resistant, read-out: minimal inhibitory concentration (MIC)
How it was run: as §1

[14] = tested on: P. aeruginosa MSC01035; experiment: MIC, agar plate dilution method, P. aeruginosa MSC01035; type: cell-based, Pseudomonas aeruginosa; details: Pseudomonas aeruginosa, P. aeruginosa MSC01035, ABK-resistant, read-out: minimal inhibitory concentration (MIC)
How it was run: as §1

SMILES	MIC [1] [µg/mL]	MIC [2] [µg/mL]	MIC [3] [µg/mL]	MIC [4] [µg/mL]	MIC [5] [µg/mL]	MIC [6] [µg/mL]	MIC [7] [µg/mL]	MIC [8] [µg/mL]	MIC [9] [µg/mL]	MIC [10] [µg/mL]	MIC [11] [µg/mL]	MIC [12] [µg/mL]	MIC [13] [µg/mL]	MIC [14] [µg/mL]
CNC1C(O[C@H]2OC(C)[C@@H](N)[C@H](O)C2O)O[C@H]2CC(N)[C@@H](O[C@H]3CC[C@H](N)CC3N)OC2C1O (stereo partly shown) [Compound R6, 5,6,6″-trideoxyapramycin]	2 (≈ 4.07 µM)	2 (≈ 4.07 µM)	8 (≈ 16.3 µM)	16 (≈ 32.5 µM)	1 (≈ 2.03 µM)	2 (≈ 4.07 µM)	1 (≈ 2.03 µM)	8 (≈ 16.3 µM)	8 (≈ 16.3 µM)	4 (≈ 8.14 µM)	8 (≈ 16.3 µM)	8 (≈ 16.3 µM)	16 (≈ 32.5 µM)	16 (≈ 32.5 µM)
CNC1C(O[C@H]2OC(CO)[C@@H](NC)[C@H](O)C2O)O[C@H]2CC(N)[C@@H](O[C@H]3CC(O)[C@H](N)CC3N)OC2C1O (stereo partly shown) [Compound S1-a, 5-deoxy-4″-N-methylapramycin]	2 (≈ 3.72 µM)	2 (≈ 3.72 µM)	8 (≈ 14.9 µM)	32 (≈ 59.5 µM)	1 (≈ 1.86 µM)	1 (≈ 1.86 µM)	1 (≈ 1.86 µM)	8 (≈ 14.9 µM)	8 (≈ 14.9 µM)	4 (≈ 7.44 µM)	4 (≈ 7.44 µM)	4 (≈ 7.44 µM)	4 (≈ 7.44 µM)	4 (≈ 7.44 µM)
CNC1C(O[C@H]2OC(CO)[C@@H](NCCN)[C@H](O)C2O)O[C@H]2CC(N)[C@@H](O[C@H]3CC(O)[C@H](N)CC3N)OC2C1O (stereo partly shown) [Compound S1-b, 4″-N-(2-aminoethyl)-5-deoxyapramycin]	2 (≈ 3.53 µM)	1 (≈ 1.76 µM)	4 (≈ 7.06 µM)	8 (≈ 14.1 µM)	0.5 (≈ 0.882 µM)	1 (≈ 1.76 µM)	1 (≈ 1.76 µM)	4 (≈ 7.06 µM)	8 (≈ 14.1 µM)	4 (≈ 7.06 µM)	4 (≈ 7.06 µM)	4 (≈ 7.06 µM)	4 (≈ 7.06 µM)	4 (≈ 7.06 µM)
CNC1C(O[C@H]2OC(CO)[C@@H](NCCCN)[C@H](O)C2O)O[C@H]2CC(N)[C@@H](O[C@H]3CC(O)[C@H](N)CC3N)OC2C1O (stereo partly shown) [Compound S1-c, 4″-N-(3-aminopropyl)-5-deoxyapramycin]	2 (≈ 3.44 µM)	2 (≈ 3.44 µM)	4 (≈ 6.89 µM)	8 (≈ 13.8 µM)	1 (≈ 1.72 µM)	1 (≈ 1.72 µM)	1 (≈ 1.72 µM)	8 (≈ 13.8 µM)	8 (≈ 13.8 µM)	8 (≈ 13.8 µM)	4 (≈ 6.89 µM)	4 (≈ 6.89 µM)	8 (≈ 13.8 µM)	8 (≈ 13.8 µM)
CNC1C(O[C@H]2OC(CO)[C@@H](NC(CN)CN)[C@H](O)C2O)O[C@H]2CC(N)[C@@H](O[C@H]3CC(O)[C@H](N)CC3N)OC2C1O (stereo partly shown) [Compound S1-d, 4″-N-(1,3-diaminopropan-2-yl)-5-deoxyapramycin]	1 (≈ 1.68 µM)	1 (≈ 1.68 µM)	4 (≈ 6.71 µM)	16 (≈ 26.9 µM)	1 (≈ 1.68 µM)	1 (≈ 1.68 µM)	1 (≈ 1.68 µM)	8 (≈ 13.4 µM)	8 (≈ 13.4 µM)	4 (≈ 6.71 µM)	2 (≈ 3.36 µM)	4 (≈ 6.71 µM)	4 (≈ 6.71 µM)	4 (≈ 6.71 µM)

— patent US11135234B2, “Effective aminoglycoside antibiotic for multidrug-resistant bacteria” (MICROBIAL CHEMISTRY RESEARCH FOUNDATION, priority 2015, dated 2021)
